Data as given in US20150274932A1, “USE OF BIOCIDES AS FLAME RETARDANTS” (BAYER CROPSCIENCE AG, priority 2012, published 2015).

Test: ASTM D 1929 ignition temperature test, polypropylene beads with and without Deltamethrin
Type: physicochemical
Details: polypropylene beads with 11 wt % Deltamethrin and 2 wt % Bumetrizole vs pure polypropylene beads; air velocity 25 mm/s; FIG. 1
Text: ASTM D 1929: Standard Test Method for Determining Ignition Temperature of Plastics
The objective of this method is to determine at which temperature plastic material (sheet or granules) release flammable gases and vapors to such an extent, that an explosive mixture with air can be formed, that can be ignited with a pilot flame.
This “flash-point” of plastics is an important safety characteristic, which can be used to assess explosion and fire risk in plant where plastic material is processed, handled or stored. The objective of this method is to determine the temperature at which gases and vapors released from plastic sheets or granules spontaneously catch fire, i.e. without contact to an external ignition source. The Self-Ignition Temperature is relevant for the assessment of ignition risks due to hot surfaces in plant where plastic material is processed, e.g. in extruders. The tests are carried out by exposing the test item (sample) in an oven to a controlled stream of hot, fresh air. Ignition is detected by monitoring the temperature of the sample. For flash ignition, a pilot flame above the exhaust of the oven is used. For self-ignition test, no external ignition source is applied. The test are carried out in isothermal mode, i.e. at constant temperature. Several trials, at different temperatures are necessary to find the lowest temperature, at which ignition does occur. […]

With `CC1(C)[C@H](C(=O)O[C@H](C#N)c2cccc(Oc3ccccc3)c2)[C@@H]1C=C(Br)Br` [Deltamethrin] the flash ignition temperature was “higher flash ignition temperature” and the spontaneous ignition temperature was “higher spontaneous ignition temperature”.
